Data published in patent US20260176266A1, “PIPERIDINOPYRIMIDINE DERIVATIVE, PREPARATION METHOD THEREFOR AND USE THEREOF IN MEDICINE” (TUOJIE BIOTECH (SHANGHAI) CO., LTD., priority 2022, published 2026).
Blank lines part the entries; values can stand above or below the compound they belong to.

Key:
Format in all cases: cell-based
[1] = tested on: OVCAR3 ovarian cancer cells; experiment: Inhibitory activity against ovarian cancer cells (OVCAR3), CellTiter-Glo viability; settings: Homo sapiens, OVCAR-3, 120 h, OVCAR3, 5 days treatment
Procedure: OVCAR3 ovarian cancer cells were cultured in a cell incubator at […] with 5% CO2 using RPMI 1640 medium with […]. On the first day, the cells were plated in a 96-well plate at a cell concentration of 2500 cells/well and cultured overnight in the incubator. On the second day, the cells were treated with compounds. The maximum compound concentration was 10 μM and was 3-fold diluted to obtain 9 concentrations, and the final concentration of DMSO was 0.1%. After the cells were cultured in the incubator for another 5 days, cell viability was tested using the Celltiter Glo assay kit (Promega), and the testing method was consistent with the operational method provided by the kit. Data were processed using GraphPad Prism 8, and IC50 was calculated.
[formula] • X: the logarithm of the compound concentration; Y: % inhibition.

[2] = tested on: MDA-MB-468 breast cancer cells; experiment: Inhibitory activity against tumor cells, CellTiter-Glo: MDA-MB-468; settings: Homo sapiens, 120 h, MDA-MB-468, 5 days treatment
Procedure: (§1) MCF7 (ATCC #HTB-22) and T47D (ATCC #HTB-133) breast cancer cells and PANC-1 (ATCC #CRL-1469) pancreatic cancer cells were purchased from ATCC. MDA-MB-231 (Cobioer #CBP60382), HCC1806 (Cobioer #CBP60373), and MDA-MB-468 (Cobioer #CBP60387) breast cancer cells, HCT-116 (Cobioer #CBP60028) colorectal cancer cells, and OCI-AML-3 (Cobioer #CBP60817) and MV-4-11 (Cobioer #CBP60522) leukemia cells were purchased from Nanjing Cobioer Biosciences Co., Ltd.
(§2) OCI-AML-3 was cultured in RPMI 1640 medium with 20% FBS; HCC1806 and T47D were cultured in RPMI 1640 medium with 10% FBS; MCF7, MDA-MB-231, MDA-MB-468, and PANC-1 were cultured in DMEM medium with 10% FBS; MV-4-11 was cultured in IMDM medium with 20% FBS; HCT-116 was cultured in MC′5A medium with 10% FBS.
(§3) Palbociclib-resistant cells were constructed on MCF7 parent cells, designated MCF7 Palbo-R, and the culture conditions were consistent with those of the parent cells. All tumor cells were cultured in a cell incubator at 37° C. with 5% CO2. The cells were seeded at corresponding cell densities (600 cells/well for MDA-MB-231; 500 cells/well for MDA-MB-468, PANC-1, and HCT-116; 200 cells/well for MCF7 and HCC1806; 800 cells/well for MCF7 Palbo-R; 3000 cells/well for OCI-AML-3 and MV-4-11) in 384-well plates and cultured overnight in the incubator. On the second day, the cells were treated with compounds. The maximum compound concentration was 10 μM and was 3-fold diluted to obtain 9 concentrations, each tested in duplicate, and the final concentration of DMSO was 0.1%. The cells continued to be cultured in the incubator, with MDA-MB-231, PANC-1, MDA-MB-468, OCI-AML-3, and MV-4-11 being treated with drugs for 5 days and HCC1806, MCF7, MCF7 Palbo-R, and HCT116 being treated with drugs for 7 days. Cell viability was tested using the Celltiter Glo assay kit (Promega), and the testing method was consistent with the operational method provided by the kit. Readings were taken using an Envision multimode microplate reader. Data were processed using GraphPad Prism 8, and IC50 was calculated. […]

[3] = tested on: HCC1806 breast cancer cells; experiment: Inhibitory activity against tumor cells, CellTiter-Glo: HCC1806; settings: Homo sapiens, 168 h, HCC1806, 7 days treatment
Procedure: as §1, §2, §3

various tumor cell lines = experiment: Inhibitory activity against tumor cells, summary over the panel of Tables 4 and 5; settings: summary of Tables 4 and 5
Procedure: as §1, §2
(§4) Palbociclib-resistant cells were constructed on MCF7 parent cells, designated MCF7 Palbo-R, and the culture conditions were consistent with those of the parent cells. All tumor cells were cultured in a cell incubator at 37° C. with 5% CO2. The cells were seeded at corresponding cell densities (600 cells/well for MDA-MB-231; 500 cells/well for MDA-MB-468, PANC-1, and HCT-116; 200 cells/well for MCF7 and HCC1806; 800 cells/well for MCF7 Palbo-R; 3000 cells/well for OCI-AML-3 and MV-4-11) in 384-well plates and cultured overnight in the incubator. On the second day, the cells were treated with compounds. The maximum compound concentration was 10 μM and was 3-fold diluted to obtain 9 concentrations, each tested in duplicate, and the final concentration of DMSO was 0.1%. The cells continued to be cultured in the incubator, with MDA-MB-231, PANC-1, MDA-MB-468, OCI-AML-3, and MV-4-11 being treated with drugs for 5 days and HCC1806, MCF7, MCF7 Palbo-R, and HCT116 being treated with drugs for 7 days. Cell viability was tested using the Celltiter Glo assay kit (Promega), and the testing method was consistent with the operational method provided by the kit. Readings were taken using an Envision multimode microplate reader. Data were processed using GraphPad Prism 8, and IC50 was calculated.
(§5) Y=Bottom+(Top−Bottom)/(1+10^((Log IC50−X)×HillSlope)). Calculation formula: • X: the logarithm of the compound concentration; Y: % inhibition.

MCF7 breast cancer cells = experiment: Inhibitory activity against tumor cells, CellTiter-Glo: MCF7; settings: Homo sapiens, 168 h, MCF7, 7 days treatment
Procedure: as §1, §2, §3

MV-4-11 leukemia cells = experiment: Inhibitory activity against tumor cells, CellTiter-Glo: MV-4-11; settings: Homo sapiens, MV4-11, 120 h, MV-4-11, 5 days treatment
Procedure: as §1, §2, §3

[4] = tested on: MDA-MB-231 breast cancer cells; experiment: Inhibitory activity against tumor cells, CellTiter-Glo: MDA-MB-231; settings: Homo sapiens, 120 h, MDA-MB-231, 5 days treatment
Procedure: as §1, §2, §3

[5] = tested on: PANC-1 pancreatic cancer cells; experiment: Inhibitory activity against tumor cells, CellTiter-Glo: PANC-1; settings: Homo sapiens, 120 h, PANC-1, 5 days treatment
Procedure: as §1, §2, §3

T47D breast cancer cells = experiment: Inhibitory activity against tumor cells, CellTiter-Glo: T47D; settings: Homo sapiens
Procedure: as §1, §2, §4, §5

[6] = tested on: MCF7 Palbo-R (palbociclib-resistant cells constructed on MCF7); experiment: Inhibitory activity against tumor cells, CellTiter-Glo: MCF7 Palbo-R; settings: Homo sapiens, 168 h, 7 days treatment
Procedure: as §1, §2, §3

OCI-AML-3 leukemia cells = experiment: Inhibitory activity against tumor cells, CellTiter-Glo: OCI-AML-3; settings: Homo sapiens, 120 h, OCI-AML-3, 5 days treatment
Procedure: as §1, §2, §3

[7] = tested on: HCT-116 colorectal cancer cells; experiment: Inhibitory activity against tumor cells, CellTiter-Glo: HCT-116; settings: Homo sapiens, 168 h, HCT-116, 7 days treatment
Procedure: as §1, §2, §4, §5

SMILES: C#Cc1cccc([C@@H]2CN(C)CC[C@H]2C(=O)N2Cc3nc(NCc4ccn(C)n4)ncc3C[C@H]2C)c1 [Compound 1-2, ((3R,4R)-3-(3-Ethynylphenyl)-1-methylpiperidin-4-yl)((R)-6-methyl-2-(((1-methyl-1H-pyrazol-3-yl)methyl)amino)-5,8-dihydropyrido[3,4-d]pyrimidin-7(6H)-yl)methanone]
IC50 [1]: 11.5 nM

SMILES: C[C@@H]1Cc2cnc(N[C@H](C)c3ccccc3)nc2CN1C(=O)N[C@H](CN(C)C)c1ccccc1 [Example 5, (R)—N—((S)-2-(Dimethylamino)-1-phenylethyl)-6-methyl-2-(((R)-1-phenylethyl)amino)-5,8-dihydropyrido[3,4-d]pyrimidine-7(6H)-carboxamide]
IC50 [1]: 81.2 nM

SMILES: C[C@@H]1Cc2cnc(NC3Cc4ccccc4C3)nc2CN1C(=O)N[C@H](CN(C)C)c1ccccc1 [Example 7, (R)-2-((2,3-Dihydro-1H-inden-2-yl)amino)-N—((S)-2-(dimethylamino)-1-phenylethyl)-6-methyl-5,8-dihydropyrido[3,4-d]pyrimidine-7(6H)-carboxamide]
IC50 [1]: 6.44 nM

SMILES: CCN(C)C[C@@H](NC(=O)N1Cc2nc(NCc3ccn(C)n3)ncc2C[C@H]1C)c1ccccc1 [Example 8, (R)—N—((S)-2-(Ethyl(methyl)amino)-1-phenylethyl)-6-methyl-2-(((1-methyl-1H-pyrazol-3-yl)methyl)amino)-5,8-dihydropyrido[3,4-d]pyrimidine-7(6H)-carboxamide]
IC50 [1]: 58.3 nM

SMILES: C[C@H](Nc1ncc2c(n1)CN(C(=O)N[C@H](CN(C)C)c1ccccc1)[C@H](C)C2)c1ccccc1 [Example 9, (R)—N—((S)-2-(Dimethylamino)-1-phenylethyl)-6-methyl-2-(((S)-1-phenylethyl)amino)-5,8-dihydropyrido[3,4-d]pyrimidine-7(6H)-carboxamide]
IC50 [1]: 13.8 nM

SMILES: CC1Cc2cnc(NC3CCOCC3)nc2CN1C(=O)N[C@H](CN(C)C)c1ccccc1 (stereo partly drawn) [Example 10, N—((S)-2-(Dimethylamino)-1-phenylethyl)-6-methyl-2-((tetrahydro-2H-pyran-4-yl)amino)-5,8-dihydropyrido[3,4-d]pyrimidine-7(6H)-carboxamide]
IC50 [1]: 42.6 nM

SMILES: [2H]C([2H])([2H])N(C[C@@H](NC(=O)N1Cc2nc(NCc3ccn(C)n3)ncc2C[C@H]1C)c1ccccc1)C([2H])([2H])[2H] [Example 12, (R)—N—((S)-2-(Bis(methyl-d3)amino)-1-phenylethyl)-6-methyl-2-(((1-methyl-1H-pyrazol-3-yl)methyl)amino)-5,8-dihydropyrido[3,4-d]pyrimidine-7(6H)-carboxamide]
IC50 [2]: 0.0324 µM | IC50 [3]: 0.0285 µM | inhibitory activity against the various tumor cell lines (in words) (various tumor cell lines): high inhibitory activity | IC50 (MCF7 breast cancer cells): 0.0217 µM | IC50 (MV-4-11 leukemia cells): 0.0273 µM | IC50 [4]: 0.0258 µM | IC50 [5]: 0.0503 µM | IC50 [1]: 33.9 nM | IC50 (T47D breast cancer cells): 0.0415 µM | IC50 [6]: 0.0433 µM | IC50 (OCI-AML-3 leukemia cells): 0.0471 µM | IC50 [7]: 0.066 µM

SMILES: C[C@@H]1Cc2cnc(NCc3ccn(C)n3)nc2CN1C(=O)N[C@H](CN(C)C)c1cccc(Cl)c1 [Example 13, (R)—N—((S)-1-(3-Chlorophenyl)-2-(dimethylamino)ethyl)-6-methyl-2-(((1-methyl-TH-pyrazol-3-yl)methyl)amino)-5,8-dihydropyrido[3,4-d]pyrimidine-7(6H)-carboxamide]
IC50 [1]: 21.7 nM

Continued, in another order:

IC50 [1]: 40.5 nM
SMILES: [2H]C([2H])([2H])n1ccc(CNc2ncc3c(n2)CN(C(=O)N[C@H](CN(C)C)c2ccccc2)[C@H](C)C3)n1 [Example 14, (R)—N—((S)-2-(Dimethylamino)-1-phenylethyl)-6-methyl-2-(((1-(methyl-d3)-1H-pyrazol-3-yl)methyl)amino)-5,8-dihydropyrido[3,4-d]pyrimidine-7(6H)-carboxamide]

IC50 [1]: 26.7 nM
SMILES: Cc1cc(Nc2ncc3c(n2)CN(C(=O)N[C@H](CN(C)C)c2ccccc2)[C@H](C)C3)ccn1 [Example 15, (R)—N—((S)-2-(Dimethylamino)-1-phenylethyl)-6-methyl-2-((2-methylpyridin-4-yl)amino)-5,8-dihydropyrido[3,4-d]pyrimidine-7(6H)-carboxamide]

IC50 [1]: 9.99 nM
SMILES: C[C@@H]1Cc2cnc(Nc3cnn(CC4CC4)c3)nc2CN1C(=O)N[C@H](CN(C)C)c1ccccc1 [Example 16, (R)-2-((1-(Cyclopropylmethyl)-1H-pyrazol-4-yl)amino)-N—((S)-2-(dimethylamino)-1-phenylethyl)-6-methyl-5,8-dihydropyrido[3,4-d]pyrimidine-7(6H)-carboxamide]

IC50 [1]: 22.5 nM
SMILES: C[C@@H]1Cc2cnc(Nc3cnn(C)c3)nc2CN1C(=O)N[C@H](CN(C)C)c1ccccc1 [Example 17, (R)—N—((S)-2-(Dimethylamino)-1-phenylethyl)-6-methyl-2-((1-methyl-1H-pyrazol-4-yl)amino)-5,8-dihydropyrido[3,4-d]pyrimidine-7(6H)-carboxamide]

IC50 [1]: 26.1 nM | IC50 (T47D breast cancer cells): 0.0141 µM | IC50 [7]: 0.0292 µM
SMILES: [2H]C([2H])([2H])N(C[C@@H](NC(=O)N1Cc2nc(N[C@@H](C)c3ccccn3)ncc2C[C@H]1C)c1ccccc1)C([2H])([2H])[2H] [Example 19, (R)—N—((S)-2-(Bis(methyl-d3)amino)-1-phenylethyl)-6-methyl-2-(((S)-1-(pyridin-2-yl)ethyl)amino)-5,8-dihydropyrido[3,4-d]pyrimidine-7(6H)-carboxamide]
inhibitory activity against the various tumor cell lines (in words) (various tumor cell lines): high inhibitory activity
